Results reported in PubChem BioAssay (NCI).
Several values for one entry are separate records, joined by “and”; a condition that tells them apart may be missing. Identical values can stand only once.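 A five-concentration, 48-hour dose response in 96-well plates underlies each endpoint, interpolated linearly between surrounding concentrations. The concentration for 50% growth inhibition is given as GI50. At the TGI there is no net growth.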

Assays:
Assay in all cases: inhibition of tumour cell growth, NCI panel, 48 h
[1] = test system: HS 578T breast
[2] = test system: KM12 colon
[3] = test system: LOX IMVI melanoma
[4] = test system: NCI-H226 lung
[5] = test system: SF-268 CNS
[6] = test system: SF-295 CNS
[7] = test system: SK-MEL-28 melanoma
[8] = test system: SN12C renal
[9] = test system: SNB-19 CNS
[10] = test system: SNB-75 CNS

| SMILES | TGI [1] | GI50 [2] [µM] | TGI [2] [µM] | GI50 [3] [µM] | TGI [3] [µM] | GI50 [4] [µM] | TGI [4] [µM] | GI50 [5] [µM] | TGI [5] [µM] | GI50 [6] [µM] | TGI [6] [µM] | GI50 [7] [µM] | TGI [7] [µM] | GI50 [8] [µM] | GI50 [9] [µM] | GI50 [10] [µM] | TGI [10] | TGI [8] [µM] | TGI [9] [µM] | GI50 [1] [µM] |
| --- | --- | --- | --- | --- | --- | --- | --- | --- | --- | --- | --- | --- | --- | --- | --- | --- | --- | --- | --- | --- |
| CC(=O)OC1OC([C@H]2c3cccc(O)c3C(=O)c3c(O)cc(C)cc32)C(O)C(O)C1O (some centres not stated) | 0.728 µM | 0.202 | 0.624 | < 0.0146 | < 0.0251 | < 0.01 | 0.0455 | 0.0788 | 1.74 | 0.0817 | 0.239 | 0.191 | > 23.2 | < 0.0259 | 0.0342 | 0.0297 | 2.74 µM | – | – | – |
| Nc1ncnc2c1ncn2C1C=C(CO)C(O)C1O (configuration not stated) | > 100 µM | – | > 100 | – | 45.4 | – | > 100 | – | > 100 | – | > 100 | – | > 100 | – | – | – | 48.9 µM | > 100 | > 100 | – |
| Cc1cc(N(CC(C)Br)CC(C)Br)ccc1N=Nc1ccccc1C(=O)O (configuration not stated) | 49.2 µM | – | 27.4 | – | 31.9 | – | 13.3 | – | > 38.8 | – | 6.33 | – | 5.43 | – | – | – | 11.2 µM | 20 | 23.5 | – |
| COc1ccc(C(C#N)NC23CC4CC(CC(C4)C2)C3)cc1 (configuration not stated) | > 100 µM | – | > 100 | – | > 100 | – | > 100 | – | > 100 | – | > 100 | – | > 100 | – | – | – | > 100 µM | > 100 | > 100 | – |
| O=C(/C=C/c1ccccc1)Nc1ncc(Cc2ccccc2Cl)s1 | > 24.7 µM | 0.288 | > 100 | 0.426 | > 100 | 0.35 | > 100 | 1.8 | > 100 | 0.282 | 11.7 | 1.5 | > 100 | 0.623 | 0.404 | 0.219 | 2.16 µM | > 100 | > 100 | 0.302 |
| CS(=O)(=O)CCNCc1coc(-c2ccc3ncnc(Nc4ccc(OCc5ccccc5)cc4)c3c2)c1 | 7.66 µM | 4.68 | 11.9 | 4.27 | 8.81 | > 12.8 | > 25 | 3.35 | 7.5 | 4.39 | 9.19 | 3.83 | 7.49 | 3.57 | 6.4 | 3.92 | 10 µM | 8.04 | > 25 | 2.45 |
| O=C(O)CSCCc1ccccc1 | > 100 µM | – | > 100 | – | > 100 | – | > 100 | – | > 100 | – | > 100 | – | > 100 | – | – | – | > 100 µM | > 100 | > 100 | – |
| Oc1ccc2ccccc2c1N=Nc1cccc2ccccc12 | > 100 µM and 77.7 µM | – | > 100 | – | > 100 | – | > 100 | – | > 100 | – | > 100 | – | > 100 | – | – | – | > 100 µM and 80.4 µM | > 100 | > 100 | – |
| CC/C=C\C[C@H]1CC=C2C(=O)C=C[C@@H]2CC=CCCCC(=O)O[C@@H](CCCCC)CC=C2C(=O)C=C[C@@H]2CC=CCCCC(=O)O[C@@H](CCCCC)CC=C2C(=O)C=C[C@@H]2CC=CCCCC(=O)O[C@@H](CCCCC)CC=C2C(=O)C=C[C@@H]2CC=CCCCC(=O)O1 | > 7.9 µM | 2.51 | > 7.9 | 1.22 | 2.47 | 2.48 | > 7.9 | 2.62 | > 7.9 | 2.02 | 6.32 | 1.99 | 6.3 | 1.99 | 2.83 | 3.8 | > 7.9 µM | 6.86 | > 7.9 | 2.68 |
| Cc1cc(Cl)ccc1OCC(=O)Nc1nc2c(Cl)cccc2s1 | > 100 µM | 43.5 | > 100 | 9.82 | 45.6 | 53.3 | > 100 | 28.8 | > 100 | 20.8 | > 100 | > 100 | > 100 | 39.2 | 31.2 | 23.7 | > 100 µM | > 100 | 72 | > 100 |
